Data published in BigSolDB 2.1.

Clc1ccccc1C(c1ccccc1)(c1ccccc1)n1ccnc1
solubility (mole fraction)
Settings	293.2 K	298.2 K	303.2 K	308.2 K	313.2 K
in ethanol	0.0154	0.0167	0.0216	0.025	0.0312
in water	2.42e-08	2.92e-08	3.38e-08	3.77e-08	4.15e-08
